The nature of data set [1]: Pharmacokinetic study in rats (oral gavage and tail vein injection, plasma LC-MS/MS). It is filed as in vivo. As to conditions: rat; for Cmax: read-out: Cmax. Put shortly: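 Male SD rats (200–250 g) are dosed orally (fasted; 5% DMSO/5% ethanol/60% PEG400/30% saline) or by tail-vein injection (10% ethanol/20% water/70% PEG400). Plasma sampled up to 24 h is analysed by LC-MS/MS. Non-compartmental analysis yields Cmax, C0, Tmax, AUC and T1/2.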

Data set [2] deals with T1, LPAR1 receptor (Homo sapiens, UniProt Q92633).
T1 construct: expressed in transfected cells
T1 sequence (Q92633 whole entry): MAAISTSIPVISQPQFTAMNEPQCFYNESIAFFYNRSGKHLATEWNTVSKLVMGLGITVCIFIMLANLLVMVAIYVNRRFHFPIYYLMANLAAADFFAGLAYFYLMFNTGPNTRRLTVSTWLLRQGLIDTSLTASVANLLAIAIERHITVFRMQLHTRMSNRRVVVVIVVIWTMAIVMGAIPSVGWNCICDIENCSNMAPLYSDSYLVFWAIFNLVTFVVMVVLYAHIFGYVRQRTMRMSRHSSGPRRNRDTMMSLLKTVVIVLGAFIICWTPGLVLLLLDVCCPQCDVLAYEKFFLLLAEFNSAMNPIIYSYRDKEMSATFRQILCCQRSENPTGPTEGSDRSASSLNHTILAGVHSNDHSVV
The data set is described as follows: LPAR1 in vitro biological activity evaluation 2: HTRF cAMP kit (LANCE Ultra cAMP Kit) assay in CHO stable transfected cell line expressing the LPAR1 receptor. It is filed as cell-based. As to the method: The inhibitory effects of the compounds of the present disclosure on the LPAR1 receptor were determined using a Chinese hamster ovary (CHO) stable transfected cell line expressing the LPAR1 receptor, through the HTRF cAMP kit (LANCE® Ultra cAMP Kit).
The CHO cell line expressing the LPAR1 receptor was cultured in F-12 medium (Gibco, 117650054) containing 10% fetal bovine serum (FBS, Avantor, 76294-180) and 0.2 mg/mL hygromycin B (Solarbio, H8080-1g) at 37°C with 5% CO2. Cell passage, recovery, and cryopreservation were performed according to conventional methods. The stable transfected cell line was cultured to 80% confluence, digested with trypsin to collect cells, counted, and then seeded at 5 µL/well in a 384-well plate (500 cells/5 µL). The 1× Stimulation Buffer was prepared according to the instructions of the kit (LANCE® Ultra cAMP Kit). 1 µL of the test compound solution (diluted to 10× with 1× Stimulation Buffer) was added to the corresponding experimental wells, followed by centrifugation and incubation at 37°C for 10 minutes. […] 5 µL/well of Eu-cAMP (diluted with Detection buffer) was added to the corresponding experimental wells. 5 µL/well of ULight™-anti-cAMP antibody (diluted with Detection buffer) was added to the corresponding experimental wells, followed by centrifugation and incubation at room temperature for 1 hour. After the incubation was completed, the readings at 665 nm and 620 nm under 330 nm excitation were detected using the HTS high-throughput drug screening multifunctional microplate reader (BMG, PHERAstar FSX). The IC50 values were calculated by fitting nonlinear regression (dose response - variable slope) using GraphPad Prism software.
(In general: Time-resolved FRET reads energy transfer from a long-lived donor to a nearby acceptor.)

Data set [3] addresses hLPAR1 (human lysophosphatidic acid receptor 1, Accession No.: NM_001401.4) (Homo sapiens, UniProt Q92633). Briefly: cell-based. Conditions: FLIPR method, CHO-K1 cells overexpressing hLPAR1. The gist of the method: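 Antagonist mode in CHO-K1 cells stably expressing hLPAR1, Fluo-4 loaded; compound preincubated 30 min at room temperature before 1 µM oleoyl-LPA (final) challenge.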

Setting [4] is: Table 2, read-out: LPAR1 inhibitory activity IC50.
Where [5] appears, read: LPAR1 inhibitory activity IC50, Table 1.

Read-outs that look alike come from different tables or passages of the source.

Eleven molecules from patent EP4755881A1 (Wuhan Createrna Science and Technology Co., Ltd., priority 2023, dated 2025) can be followed below.

By half-life is commonly meant the time needed for the level to fall by half in the phase considered. By AUC(0-t) is commonly meant exposure summed from dosing to a finite time, without extrapolation to infinity. Read a low AUC(0-t) as less exposure. Broadly, the Cmax is the maximum level reached in the sampled fluid or tissue. What is called IC50 is the point on the concentration scale where inhibition reaches its midpoint.

hLPAR1 (human lysophosphatidic acid receptor 1, Accession No.: NM_001401.4), sequence (Q92633 whole entry): as above

In the case of `Cc1nc(-c2nnn(C)c2NC(=O)O[C@H](C)c2ccccc2)ccc1C#C[C@@H]1CC[C@H]1C(=O)O` [compound 309], the half-life in data set [1] (male, SD, iv, 1 mg/kg) is 4.36 h; in data set [1] (male, SD, po, 1 mg/kg), 4.08 h. The AUC(0-t) in data set [1] (male, SD rats, Iv, 1 mg/kg) was in the range of 3000 to 5000 ng·h/mL; in data set [1] (male, SD rats, Po, 1 mg/kg), 5000 to 10000 ng·h/mL. For the same molecule, the Cmax lay within 800 to 5000 ng/mL in data set [1] (male, SD rats, Iv, 1 mg/kg) and 800 to 5000 ng/mL in data set [1] (male, SD rats, Po, 1 mg/kg). For the same molecule, the IC50 in data set [2] (setting [4]) turned out to be 83.2 nM.
Consider `CCCC(C)OC(=O)Nc1c(-c2ccc(C#CC3CCCC3C(=O)O)c(C)n2)nnn1C` (single isomer, unassigned) [305-B], for which, in data set [1] (SD rats, Iv, 1 mg/kg), the AUC(0-t) lay in the range of 3000 to 5000 ng·h/mL, the half-life is 3.52 h and the Cmax was in the range of 800 to 5000 ng/mL. In data set [1] (SD rats, Po, 1 mg/kg), the AUC(0-t) is 5000 to 10000 ng·h/mL, the half-life is 3.49 h and the Cmax is 800 to 5000 ng/mL. In addition, the IC50 in data set [2] (setting [4]) stood at 81.5 nM.
As for `Cc1nc(-c2onc(C)c2NC(=O)O[C@H](C)CC(C)(F)F)ccc1C#CC1(CC(=O)O)CC1` [compound 276], in data set [1] (SD rats, Iv, 1 mg/kg), the AUC(0-t) fell in the range of 3000 to 5000 ng·h/mL, the half-life was 3.69 h and the Cmax lay within 800 to 5000 ng/mL. The IC50 in data set [2] (setting [4]) is 96.4 nM.
On to `Cc1nc(-c2nnn(C)c2NC(=O)O[C@H](C)CC(C)C)ccc1C#C[C@@H]1CC[C@H]1C(=O)O` [compound 308], for which the results for the IC50 in data set [3] (setting [5]) and in data set [2] (setting [4]) were 10.9 nM and 93.2 nM, respectively.
For `CCC(F)(F)[C@@H](C)OC(=O)Nc1c(C)noc1-c1ccc(C#CC2(CC(=O)O)CC(OC)C2)c(C(F)(F)F)n1` (some centres unmarked) [compound 506], the half-life was 2.51 h in data set [1] (male, SD, iv, 1 mg/kg) and 2.41 h in data set [1] (male, SD, po, 1 mg/kg). Also, the AUC(0-t) in data set [1] (male, SD rats, Iv, 1 mg/kg) was in the range of 10000 to 20000 ng·h/mL; in data set [1] (male, SD rats, Po, 1 mg/kg) it was 10000 to 20000 ng·h/mL. For the same molecule, the Cmax was in the range of 8000 to 12000 ng/mL in data set [1] (male, SD rats, Iv, 1 mg/kg) and 800 to 5000 ng/mL in data set [1] (male, SD rats, Po, 1 mg/kg). Further, the IC50 in data set [2] (setting [4]) worked out at 20.1 nM.
Take `CCC(F)(F)[C@@H](C)OC(=O)Nc1c(-c2ccc(C#CC3(CC(=O)O)CC(OC)C3)c(C)n2)noc1C` (some centres unmarked) [compound 468]: in data set [1] (SD rats, Iv, 1 mg/kg), the AUC(0-t) was 3000 to 5000 ng·h/mL, the half-life was 2.35 h and the Cmax is 800 to 5000 ng/mL. Moreover, in data set [1] (SD rats, Po, 1 mg/kg), the area under the curve AUC(0-t) is 5000 to 10000 ng·h/mL, the half-life was 2.77 h and the Cmax lay in the range of 200 to 800 ng/mL. Besides, the midpoint of inhibition in data set [2] (LPAR1 inhibitory activity IC50, Table 2), the IC50, lay at 31.6 nM.
As for `CCCN(C)C(=O)OCc1c(-c2ccc(O[C@H]3CCC[C@H](C(=O)O)C3)c(C)n2)nnn1C` [Control compound 1, reference compound], the half-life in data set [1] (male, SD, iv, 1 mg/kg) is 3.26 h; in data set [1] (male, SD, po, 1 mg/kg), 2.37 h; in data set [1] (male, SD, po, 3 mg/kg), 2.59 h. For the same molecule, the AUC(0-t) came to 811 ng·h/mL in data set [1] (male, SD rats, Iv, 1 mg/kg); 626 ng·h/mL in data set [1] (male, SD rats, Po, 1 mg/kg); 1540 ng·h/mL in data set [1] (male, SD rats, Po, 3 mg/kg). The Cmax in data set [1] (male, SD rats, Iv, 1 mg/kg) amounted to 1570 ng/mL; in data set [1] (male, SD rats, Po, 1 mg/kg), 154 ng/mL; in data set [1] (male, SD rats, Po, 3 mg/kg), 985 ng/mL. Besides, the IC50 in data set [2] (setting [4]) was 407 nM.
As for `CCOC1CC(C#Cc2ccc(-c3nnn(C)c3NC(=O)O[C@H](C)C(F)(F)CC)nc2C)(CC(=O)O)C1` (some centres unmarked) [compound 429], the half-life in data set [1] (male, SD, iv, 1 mg/kg) is 6.87 h; in data set [1] (male, SD, po, 1 mg/kg), 5.7 h. Moreover, the AUC(0-t) in data set [1] (male, SD rats, Iv, 1 mg/kg) was in the range of 3000 to 5000 ng·h/mL; in data set [1] (male, SD rats, Po, 1 mg/kg), 3000 to 5000 ng·h/mL. For the same molecule, the Cmax is 5000 to 8000 ng/mL in data set [1] (male, SD rats, Iv, 1 mg/kg) and 200 to 800 ng/mL in data set [1] (male, SD rats, Po, 1 mg/kg). Also, the IC50 in data set [2] (setting [4]) came to 33.4 nM.
As for `CCC[C@@H](C)OC(=O)Nc1c(-c2ccc(C#CC3(CC(=O)O)CC(OC)C3)c(C)n2)nnn1C` (some centres unmarked) [compound 278], the half-life in data set [1] (male, SD, iv, 1 mg/kg) is 5.24 h; in data set [1] (male, SD, po, 1 mg/kg) it was 4.5 h. Further, the AUC(0-t) was in the range of 5000 to 10000 ng·h/mL in data set [1] (male, SD rats, Iv, 1 mg/kg) and 5000 to 10000 ng·h/mL in data set [1] (male, SD rats, Po, 1 mg/kg). In addition, the Cmax in data set [1] (male, SD rats, Iv, 1 mg/kg) lay within 5000 to 8000 ng/mL; in data set [1] (male, SD rats, Po, 1 mg/kg) it was 200 to 800 ng/mL. The IC50 came out at 38.1 nM in data set [3] (Table 1, read-out: LPAR1 inhibitory activity IC50) and 34.4 nM in data set [2] (setting [4]).
As for `CCc1nc(-c2nnn(C)c2NC(=O)O[C@H](C)CC(C)(F)F)ccc1C#CC1(CC(=O)O)CC1` [compound 232], in data set [1] (SD rats, Iv, 1 mg/kg), the AUC(0-t) was in the range of 5000 to 10000 ng·h/mL, the half-life is 14.5 h and the Cmax lay in the range of 800 to 5000 ng/mL. Moreover, in data set [1] (SD rats, Po, 1 mg/kg), the AUC(0-t) fell in the range of 3000 to 5000 ng·h/mL, the half-life was 14 h and the Cmax is 200 to 800 ng/mL. The concentration for half-maximal inhibition (IC50) in data set [2] (setting [4]) was 75.4 nM.
For `CCCC[C@@H](C)OC(=O)Nc1c(-c2ccc(C#CC3(CC(=O)O)CC3)c(C)n2)nnn1C` [compound 313], in data set [1] (SD rats, Iv, 1 mg/kg), the AUC(0-t) was 3000 to 5000 ng·h/mL, the half-life was 5.12 h and the Cmax lay within 800 to 5000 ng/mL. In data set [1] (SD rats, Po, 3 mg/kg), the AUC(0-t) lay within 10000 to 20000 ng·h/mL, the half-life is 5.59 h and the Cmax is 800 to 5000 ng/mL. In data set [3] (setting [5]), this molecule came in with an IC50 of 16.1 nM. Further, the IC50 in data set [2] (setting [4]) stood at 156 nM.
